Data on four compounds can be found in patent US12398110B2, “Second generation inhibitors of mitochondrial permeability transition pore with improved plasma stability” (Oregon Health & Science University, priority 2019, dated 2025).

The test system of one data set is mitochondria. To be noted: from Roy et al. [12]; cited from earlier work.
The nature of data set [1]: Plasma stability determination in mouse plasma. To be noted: mouse. Format: in vitro ADME. How it is done:
Plasma stability determination. The degradation of TR001 in the presence of mouse plasma (from Innovative Research) was used to predict the plasma stability of the compound to esterase catalyzed hydrolysis. A positive control for plasma cholinesterase, propantheline bromide, was included in all assays. Briefly, murine plasma was incubated with 1 μm TR001. Aliquots were removed at t=0, 5, 15, 30, and 60 and 120 min and quenched with acetonitrile containing structurally related compound (TR073) as the internal standard. The amount of TR001 remaining in the supernatant was assessed by LC-MS/MS in multiple reaction monitoring mode (MRM) using a 4000 QTRAP (SCIEX) with electrospray ionization source. The instrument was operated in negative mode with source parameters: source voltage […], GS1 50, GS2 50, CUR 30, TEM 650 and CAD gas MED. Optimal MRM transitions were obtained by direct infusion of the pure compound into the source. The mass spectrometer was interfaced to a Shimadzu (Columbia, MD) SIL-20AC XR auto-sampler maintained at 35° C. followed by 2 LC-20AD XR LC pumps. The internal standard and compound of interest were resolved using a Gemini-NX C18 50×2.1 mm column (Phenomenex) with 0.1% formic acid (solvent A) and 0.1% formic acid in acetonitrile (solvent B). The injection volume was 10 μL at a flow rate of 0.75 mL/min. The gradient elution was 10% B to 95% B over 5 min and held at 95% for 1 min before returning to start conditions. The column was maintained at 40° C. using a Shimadzu CTO-20AC column oven. Data were acquired using Analyst 1.6.2 and analyzed using Multiquant 3.0.1 software. The first-order rate constant for substrate depletion was determined from a linear least squares fit of the natural log of the percent parent compound remaining versus time. The rate constant was used to calculate the plasma half-life as an indicator of stability.

Data set [2] relates to col6a1 zebrafish morphants. The data set is described as follows: Survival of col6a1 zebrafish morphants. In kind it is in vivo. From the text:
In FIG. 6D, the left panel represents data from embryos injected with a scrambled morpholino (scrd_MO, open squares), Exon 9 col6a1 morpholino (col6a1_MO, closed squares) and col6a1_MO embryos treated with TR001 at 0.1 μm (open circles), 1.0 μm (open triangles), 10 μm (open diamonds). Right panel represents data from embryos injected with a scrambled morpholino (scrd_MO, open squares), Exon 9 col6a1 morpholino (col6a1_MO, closed squares) and col6a1_MO embryos treated with 63 at […] (closed circles), 1.0 μm (closed triangles), 10 μm (closed diamonds). Embryos were treated with oligomycin, FCCP, rotenone (R) and antimycin A (A) as indicated. Results are presented as mean±SEM. Both graphs report data from 5 independent experiments with n=20 for each treatment. Error bars are reported as SEM. FIG. 6E, Survival of DMSO-treated zebrafish injected with the scrambled morpholino (open squares), DMSO-treated col6a1 morphants (closed squares) and col6a1 morphants treated with TR001 (0.1 μm, open triangles; 1.0 μm, open circles; 10 μm, open diamonds) or 63 (0.1 μm, closed triangles; 1.0 μm, closed circles; 10 μm, closed diamonds) were recorded for 30 days. Treatment started at 21 hpf and repeated at 4 dpf (arrows). Data report the percentage of surviving fish and are mean±SEM from 3 independent experiments (n=15 for each condition in each set).
Finally, fish survival was also assessed. Fifty percent of col6a1 morphant embryos treated with 0.1 μm of TR001 survived 7 days longer than col6a1 morphants treated with DMSO (p<0.0001 from 3 to 12 dpf), and 20% were still alive at 30 dpf (i.e., after 29 days of treatment) (FIG. 6E).
(§1) Morpholino antisense injection and treatment. Knock-down of col6a1 gene expression was obtained with a previously published morpholino ^[25] with sequence GAGAGCGGAAGACGAACCTTCATTC (SEQ ID NO: 2; GeneTools, Inc.). A control morpholino with no sequence homology in the zebrafish genome was used in parallel (CCTCTTACCTCAGTTACAATTTATA; SEQ ID NO: 3). Zebrafish eggs from wild-type matings were injected at the 1-2 cell stage with approximately 10 nL of 0.1 mm morpholino solution (corresponding to 4 ng of morpholino) using a WPI pneumatic PicoPump PV820 injector (World Precision Instruments, Inc.). Zebrafish embryos were dechorionated at 20 hours post fertilization (hpf) and treated at 21 hpf with increasing doses (0.1, 1 and 10 μm) of both TR001 and 63 compounds dissolved in fish water with 1% DMSO (vehicle).
Survival. Zebrafish survival was monitored every 3 days for 30 days. Drug treatment with both TR001 and 63 dissolved in fish water with 1% DMSO started at 21 hpf. After 3 days of treatment (4 days post fertilization, dpf), zebrafish were moved to a bigger tank (50 mL) with fresh compounds dissolved in 1% DMSO. As a control vehicle, fish water with 1% DMSO was used.

The test system of data set [3] is col6a1 zebrafish morphants. Put plainly: Spontaneous coiling events in col6a1 zebrafish morphants. Format: in vivo. To be noted: 24 hpf, 3 hours of treatment, 0.1, 1 or 10 μm. How it is done: (§2) Zebrafish embryos were injected with col6a1 morpholino at the 1-cell stage, dechorionated at 20 hpf and treated at 21 hpf with 0.1, 1 or 10 μm of either TR001 or 63. DMSO-treated embryos injected with a scrambled morpholino were used as a control. […] It should be noted that in these protocols, embryos were exposed to drugs for a longer period of time than in the spontaneous coiling experiments. This difference may help to explain why TR001 was as effective at 0.1 μm as it was at 1 and 10 μm.
Morpholino antisense injection and treatment. Knock-down of col6a1 gene expression was obtained with a previously published morpholino ^[25] with sequence GAGAGCGGAAGACGAACCTTCATTC (SEQ ID NO: 2; GeneTools, Inc.). A control morpholino with no sequence homology in the zebrafish genome was used in parallel (CCTCTTACCTCAGTTACAATTTATA; SEQ ID NO: 3). […]
Motor activity. The number of spontaneous coiling events performed in 15 seconds by single zebrafish embryos was recorded at 24 hpf by light microscopy. Touch-evoked escape responses were recorded at 48 hpf by observing the ability of zebrafish embryos to escape after a tail-touch with a little tip. […]

For data set [4], the system named is col6a1 zebrafish morphants. Put plainly: Touch-evoked escape response in col6a1 zebrafish morphants. Format: in vivo. To be noted: 48 hpf. Here is the method:
as §2, §1
Motor activity. The number of spontaneous coiling events performed in 15 seconds by single zebrafish embryos was recorded at 24 hpf by light microscopy. Touch-evoked escape responses were recorded at 48 hpf by observing the ability of zebrafish embryos to escape after a tail-touch with a little tip. Embryos were subdivided in 4 groups according to the observed phenotype: paralyzed embryos, score 0; underdeveloped embryos showing only coiling events, score 1; embryos showing lower motility, score 2; normal embryos, score 3.

Data set [5] has as its system col6a1 zebrafish morphants. The data set is described as follows: Birefringence (muscle structure) in col6a1 zebrafish morphants. Format: in vivo. Conditions: 48 hpf. How it is done:
Muscle structure was assessed by birefringence analysis at 48 hpf, a time when muscle tissue is fully developed and organized muscle fibers start to show anisotropic features. A high percentage of severe birefringence abnormality (>75%, FIG. 6C) was detected in col6a1 morphants, indicating major defects of muscle fiber development and organization.
as §1, with “Zebrafish embryos were dechorionated at 20 hours post fertilization (hpf) and treated at 21 hpf with increasing doses (0.1, 1 and 10 μm) of both TR001 and 63 compounds dissolved in fish water with 1% DMSO (vehicle).” left out
Birefringence. Muscle structure was monitored by birefringence analysis, taking advantage of muscle anisotropy, which is the ability of muscle fibers to refract polarized light. […] With this set-up, light refracted by muscle fibers (due to the pseudo-crystalline array of sarcomeres) is transmitted and analyzed. Integrated area of birefringence was calculated using ImageJ software. […]

Where two headings read alike, the source gives them in different places.

Regarding `Cc1ccc(Cl)cc1NC(=O)c1cc(-c2ccc(F)c(O)c2)[nH]n1` [Compound 72], in the data set on mitochondria, the mitochondrial toxicity result is on record as “exhibited mitochondrial toxicity”. Besides, the half-life at 1 µM in data set [1] (read-out: Mouse Plasma t1/2) was found to be 8.88 h.

Regarding `Cc1ccc(Cl)cc1NC(=O)c1cc(-c2ccc(F)c(O)c2)on1` [Compound 63, reference compound], the “survival (in words)” value is “ineffected” in data set [2] (1 μm), “ineffected” in data set [2] (10 μm) and “decreased activity compared to TR001” in data set [2] (lowest concentration tested (0.1 μm)). Besides, the spontaneous coiling events result in data set [3] was “no effect”. The “touch-evoked escape response (motility)” value in data set [4] (0.1-1.0 μM) is on record as “minimal recovery”; in data set [4] (10 μm), “no longer seen”. For the same compound, the “muscle structure by birefringence” value in data set [5] is reported as “minimal effect”. The half-life at 1 µM in data set [1] (plasma, read-out: half-life (t1/2) in plasma) was determined as 0.35 h.

Consider `COc1ccc(-c2cc(C(=O)Nc3cc(Cl)ccc3C)nn2C)cc1O` [Compound 73], for which the mitochondrial toxicity result in the data set on mitochondria is listed as “exhibited mitochondrial toxicity”. For the same compound, the half-life at 1 µM in data set [1] (read-out: Mouse Plasma t1/2) amounted to 1.42 h.

Regarding `COc1ccc(-c2cc(C(=O)Nc3cc(Cl)cnc3C)nn2C)cc1O` [Compound 74], the mitochondrial toxicity result in the data set on mitochondria is on record as “exhibited mitochondrial toxicity”. Further, the half-life at 1 µM in data set [1] (read-out: Mouse Plasma t1/2) came out at 2.52 h.
